Test results taken from patent US8183297B2 (Taipei Veterans General Hospital, priority 2008, dated 2012).

What was measured:
[1] = tested on: cancer-related stem cells; test: MTT cell viability after chemical treatment, cancer-related stem cells vs non-cancer-related stem cells; type: cell-based, human; details: MTT survival fraction; p<0.01
Description: Cells were seeded on 24-well plates at a density of 2×10^4 cells/well in medium, after post-chemical therapy 24 hours, then followed and analyzed by the MTT assay (Sigma-Aldrich Co.). The amount of MTT formazon product was determined by measuring the absorbance at 560 nm (SpectraMax 250, Molecular Devices, Sunnyvale, Calif., USA). The drugs for chemotherapy are consisted of visplatin, VP-16, doxorubicin, or paclitaxel.

AT/RT-CD133+ cells [2] = test: MTT assay of cell viability/proliferation in AT/RT-CD133+; type: cell-based, human; design: anti-cancer proliferation effect of single agent chemotherapy with addition of RV: dose or concentration left out as unconfirmed; details: for resistance of CD133+ to chemotherapeutic agent compared with CD133-: AT/RT cells, p<0.01
Description: (§1) This research followed the tenets of the Declaration of Helsinki and all samples were obtained after patients had given informed consent. Dissociated cells from the samples of brain tumors from AT/RT patients were labeled with 1 ml CD133/1 micromagnetic beads per million cells using a CD133 cell isolation kit (MACS, Miltenyi Biotec). CD133^+ cells were cultured in serum-free DMEM/F12 (GIBCO) medium supplemented with N2 supplement (R&D), 10 ng/ml human recombinant bFGF (R&D) and 10 ng/ml EGF. Gamma radiation was delivered by a Theratronic cobalt unit T-1000 (Theratronic Internation, Inc., Ottawa, Canada) at a dose rate of 1.1 Gy/min (SSD=57.5 cm). For evaluation of cell proliferation, cells were seeded on 24-well plates at a density of 2×10^4 cells/well in medium, followed by the methyl thiazol tetrazolium assay (MTT assay; Sigma-Aldrich Co.). The amount of MTT formazan product was determined using a microplate reader and an absorbance of 560 nm (SpectraMax 250, Molecular Devices, Sunnyvale, Calif., USA).

AT/RT-CD133+ cells [3] = test: Transwell migration/invasion and soft agar colony formation, AT/RT-CD133+; type: cell-based, human; design: migration/invasion: dose or concentration left out as unconfirmed; details: compared with IR treatment alone
Description: (§2) The 24-well plate Transwell® system with a polycarbonate filter membrane of 8-μm pore size (Corning, United Kingdom) was used. Cell suspensions were seeded in the upper compartment of the Transwell® chamber at a density of 1×10^5 cells in 100 μl serum-free medium. After 24 hours, the filter membrane was fixed in 4% formalin for 1 hour. The opposite surface of the filter membrane was stained with Hoechst 33342 for 3 min. The soft agar assay was performed as follows. The bottom of each well (35 mm) of a six-well culture dish was coated with 2 ml agar mixture (DMEM, 10% (v/v) FCS, 0.6% (w/v) agar). After the bottom layer solidified, 2 ml top agar-medium mixture (DMEM, 10% (v/v) FCS, 0.3% (w/v) agar) containing 2×10^4 cells was added, and dishes were incubated at 37° C. for 4 weeks. The plates were stained with 0.5 ml 0.005% Crystal Violet for 1 hour, and then the number of colonies was counted using a microscope.

MB-CSCs = test: Migration/invasion and tumor colony formation, MB-CSCs; type: cell-based, human; details: 100 μM RV alone or combined with 2 Gy IR, compared with IR (2 Gy) alone
Description: as §2

parental MB cells = test: MTT assay of cell viability in parental MB cells; type: cell-based, human; details: 50 μM RV, serum-condition culture
Description: Gamma radiation was delivered by a Theratronic cobalt unit T-1000 (Theratronic Internation, Inc., Ottawa, Canada) at a dose rate of 1.1 Gy/min (SSD=57.5 cm). For evaluation of cell proliferation, cells were seeded on 24-well plates at a density of 2×10^4 cells/well in medium, followed by the methyl thiazol tetrazolium assay (MTT assay; Sigma-Aldrich Co.).

AT/RT-CD133+/- cells = test: Apoptosis (annexin V, caspase 3, TUNEL) in AT/RT-CD133+/-; type: cell-based, human; design: apoptosis induction: dose or concentration left out as unconfirmed
Description: The activities of caspases-8 and -3 were determined by ELISA kit (Medical & Biological Laboratories Co., Ltd, Nagoya, Japan) and quantified by reading at 490 nm (MRX; Dynatech Laboratories, Chantilly, Va., U.S.A.). Each individual sample was analyzed in triplicate. Furthermore, apoptotic cells were identified by the terminal dUTP nick-end labeling (TUNEL) method (In situ Cell Death Detection Kit, POD, Roche Boehringer Mannheim Corp., Ind., U.S.A.). Briefly, cells with cover slips were washed with 1× phosphate-buffered saline (PBS), fixed with 4% of paraformaldehyde for 10 min, permeabilized with 0.1% of Triton X-100 for 5 min, and incubated with the TUNEL reagent provided for 1 h. Chromogenic development was then applied using 3-amino-9-ethyl-carbazole, and slides were counterstained using H&E.

[4] = tested on: MB-CSCs (medulloblastoma cancer stem-like cells); test: MTT assay of cell viability in MB-CSCs; type: cell-based, human
Description: Dissociated cells from the samples of medulloblastoma patients were cultured in serum-free DMEM/F12 (GIBCO) medium supplemented with N2 supplement (R&D), 10 ng/ml human recombinant bFGF (R&D) and 10 ng/ml EGF. Gamma radiation was delivered by a Theratronic cobalt unit T-1000 (Theratronic Internation, Inc., Ottawa, Canada) at a dose rate of 1.1 Gy/min (SSD=57.5 cm). For evaluation of cell proliferation, cells were seeded on 24-well plates at a density of 2×10^4 cells/well in medium, followed by the methyl thiazol tetrazolium assay (MTT assay; Sigma-Aldrich Co.).

transplanted iPS cells = test: In vivo osteogenic differentiation and teratoma formation of iPS cells transplanted to nude mice; design: species or system nude mice (BALB/c strain)
iPS and ES cells = test: Osteogenic differentiation of iPS and ES cells (Alizarin red, real-time RT-PCR); type: cell-based
Description: For osteogenic induction, ES or iPS cells were cultured in DMEM-LG (Invitrogen) supplemented with 50 μg·ml^−1 ascorbate-2 phosphate, 10 nmol·L^−1 dexamethasone, and 10 mmol·L^−1 β-glycerophosphate (Sigma, St. Louis, Mo.) for 2 weeks. At the end of osteogenic induction, cells were washed twice with PBS, fixed for 10 min at room temperature with 3.7% paraformaldehyde, and stained with von Kossa stain and Alizarin red to assess osteogenic differentiation.
Real-time RT-PCR was performed as previously described. Briefly, total RNA (1 μg) of each sample was reverse-transcribed using 0.5 μg oligo dT and 200 U Superscript II RT (Invitrogen). The amplification was carried out in a total volume of 20 μl containing 0.5 μmol·L^−1 of each primer, 4 mmol·L^−1 MgCl2, 2 μl LightCycler™-FastStart DNA Master SYBR green I (Roche Molecular Systems, Alameda, Calif.) and 2 μl of 1:10 diluted cDNA. PCR reactions were prepared in duplicate and performed using the following program: 95° C. for 10 min, followed by 40 cycles of denaturation at 95° C. for 10 sec. annealing at 55° C. for 5 sec. and extension at 72° C. for 20 sec. Standard curves (cycle threshold values versus template concentration) were prepared for each target gene and for the endogenous reference gene (GAPDH) for each sample. Quantification of unknown samples was performed using LightCycler Relative Quantification Software version 3.3 (Roche).

AT/RT CD133- cells = test: MTT assay of proliferation in AT/RT CD133-; type: cell-based, human; design: dose or concentration left out as unconfirmed; details: RV for 72 h
Description: as §1

ATRT-CD133+ cells = test: Percentage of CD133-positive cells in ATRT-CD133+; type: cell-based, human; design: dose or concentration left out as unconfirmed; details: RV for 3 days
[5] = tested on: AT/RT-CD133+ xenotransplant; test: Xenotransplanted tumorigenicity analysis of AT/RT cells in SCID mice; type: in vivo, SCID mice (BALB/c strain)
Description: All procedures involving animals were in accordance with the institutional animal welfare guideline of Taipei Veterans General Hospital. […] Tumor size was measured using calipers and the volume was calculated according to the formula: (length×width^2)/2 and then analyzed using Image Pro-plus software.

COc1cc([C@@H]2c3cc4c(cc3[C@@H](O[C@@H]3O[C@@H]5CO[C@@H](C)O[C@H]5[C@H](O)[C@H]3O)[C@H]3COC(=O)[C@H]23)OCO4)cc(OC)c1O [VP16, etoposide]
resistance of cancer-related stem cell to chemotherapeutic agent compared with non-cancer-related stem cell [1]: significantly resistant
resistance of CD133+ to chemotherapeutic agent compared with CD133- (AT/RT-CD133+ cells [2]): significantly resistant

N.N.[Cl][Pt][Cl] [cisplatin]
resistance of cancer-related stem cell to chemotherapeutic agent compared with non-cancer-related stem cell [1]: significantly resistant
resistance of CD133+ to chemotherapeutic agent compared with CD133- (AT/RT-CD133+ cells [2]): significantly resistant

COc1cccc2c1C(=O)c1c(O)c3c(c(O)c1C2=O)C[C@@](O)(C(=O)CO)C[C@@H]3O[C@H]1C[C@H](N)[C@H](O)[C@H](C)O1 [doxorubicin]
resistance of cancer-related stem cell to chemotherapeutic agent compared with non-cancer-related stem cell [1]: significantly resistant
resistance of CD133+ to chemotherapeutic agent compared with CD133- (AT/RT-CD133+ cells [2]): significantly resistant

CC(=O)O[C@H]1C(=O)[C@@]2(C)[C@H]([C@H](OC(=O)c3ccccc3)[C@]3(O)C[C@H](OC(=O)[C@H](O)[C@@H](NC(=O)c4ccccc4)c4ccccc4)C(C)=C1C3(C)C)[C@]1(OC(C)=O)CO[C@@H]1C[C@@H]2O [paclitaxel]
resistance of cancer-related stem cell to chemotherapeutic agent compared with non-cancer-related stem cell [1]: significantly resistant

Oc1ccc(/C=C/c2cc(O)cc(O)c2)cc1 [resveratrol, 3,4′,5-tri-hydroxy-trans-stilbene]
tumor colony formation (AT/RT-CD133+ cells [3]; 150 mM RV alone or combined with IR): significantly inhibited
migration/invasion (AT/RT-CD133+ cells [3]; RV alone or combined with IR): significantly inhibited
migration/invasion (MB-CSCs): significantly inhibited
tumor colony formation (MB-CSCs): significantly inhibited
cell viability of parental MB cells (parental MB cells): moderately affected
IR (2 Gy)-mediated apoptotic activity (AT/RT-CD133+/- cells; RV plus IR 2 Gy, TUNEL): increase
apoptosis induction (AT/RT-CD133+/- cells; RV, 72 h, annexin V, caspase 3, TUNEL): induce apoptosis
morphology of spheroid-like MB-CSCs ([4]; 100 μM RV, 48 hours): detached and became a single-suspension
treatment effect of IR-2 Gy on MB-CSCs with addition of RV ([4]; 100 μM RV, p<0.01): significantly improved
total cell number and growth rates of MB-CSCs ([4]; 150 μM RV for 48 h, p<0.001): significantly decreased
reduction of viability of MB-CSCs ([4]; RV 100 μM): 40-45%
cell viability of MB-CSC ([4]; RV lower than 50 μM, 48 hours, p>0.05): not significantly affected
expression of Oct-4, Nanog, Klf-4, and C-Myc in grafts (quantitative RT-PCR) (transplanted iPS cells; osteogenic medium-treated iPS cells, mice fed with resveratrol, six weeks): significantly suppressed
teratoma-like formation in grafts (transplanted iPS cells; osteogenic medium-treated iPS cells, resveratrol 7.5 μg/ml in drinking water, six weeks): No teratoma-like formation
expression of OPN in grafts (immunofluorescence) (transplanted iPS cells; resveratrol 7.5 μg/ml in drinking water daily, six weeks after transplantation, vs vehicle): significantly higher
total number and growth rates of CD133+ (AT/RT-CD133+ cells [2]; 200 mM RV for 48 and 72 h): significantly decreased
morphology of spheroidlike CD133+ (AT/RT-CD133+ cells [2]; 200 mM RV, 48 h): detached from clusters and became a single suspension
reduction of viability of CD133+ (AT/RT-CD133+ cells [2]; RV 100 mM): 20-25%
anti-cancer proliferation effect of single agent chemotherapy with addition of RV (AT/RT-CD133+ cells [2]; RV added to cisplatin, VP-16, ATRT-CD133+/-): significantly improved
reduction of viability of CD133+ (AT/RT-CD133+ cells [2]; RV for 72 h): about 40%
cell viability (AT/RT-CD133+ cells [2]; RV lower than 50 mM, 24, 48, and 72 h, p>0.05): not significantly affected
calcium accumulation / mineralization (Alizarin red staining) (iPS and ES cells; 20 μmol·L^−1 resveratrol in osteogenic medium, 14 days): significantly increased
expression of Runx2, OPN and IBSP (iPS and ES cells; 20 μmol·L^−1 resveratrol, 7 or 14 days of induction, vs without resveratrol): significantly higher
proliferation and growth of CD133- (AT/RT CD133- cells): totally block
percentage of CD133-positive cells in ATRT-CD133+ (ATRT-CD133+ cells): decrease
tumor formation in transplanted SCID mice ([5]; 1,000 AT/RT-CD133+ treated with 200 mM RV for 72 h, within 6 weeks after inoculation): did not form tumors
mean survival times (Kaplan-Meier) ([5]; CD133+ and 150 mM RV/IR vs untreated or only IR-treated CD133+, p<0.01): significantly prolonged
tumor volumes ([5]; CD133+ treated by RV/IR vs CD133+ or CD133+ treated with only IR, p<0.01): significantly decreased
tumor formation ([5]; RV-treated CD133- group): no tumor formation
